Literature values as cited in EP4763224A1, “ANTICANCER AGENT CONTAINING NKT CELL LIGAND-CONTAINING LIPOSOME COMPOSITION” (RIKEN, priority 2023, dated 2025).

Tested on: NKT cells
Settings: for activity relative to α-galactosylceramide: Patent Documents 1 to 5 and Non-Patent Document 10

Row | SMILES | activity relative to α-galactosylceramide | artificial activation of NKT cells (Non-Patent Document 9)
1 | CCCCCCCCCCCCCCCCCCCCCCCCCC(=O)N[C@@H](CO[C@H]1O[C@H](COC)[C@H](O)[C@H](O)[C@H]1O)[C@H](O)[C@H](O)CCCCCCCCCCCCCC [RCAI-61] | several tens times higher | 
2 | CCCCCCCCCCCCCCCCCCCCCCCCCC(=O)N[C@@H](CO[C@H]1O[C@H](CO)[C@H](O)[C@H](O)[C@H]1O)[C@H](O)[C@H](O)CCCCCCCCCCCCCC [α-Galactosylceramide, reference compound] |  | strongly induce artificial activation of NKT cells
3 | CCCCCCCCCCCCCCCCCCCCCCCCCC(=O)N[C@@H](CO[C@H]1O[C@H](COC(=O)NC)[C@H](O)[C@H](O)[C@H]1O)[C@H](O)[C@H](O)CCCCCCCCCCCCCC [RK-163] | several tens times higher | 
4 | CCCCCCCCCCCCCCCCCCCCCCCCCC(=O)N[C@@H](CO[C@H]1O[C@H](COC(=O)NO)[C@H](O)[C@H](O)[C@H]1O)[C@H](O)[C@H](O)CCCCCCCCCCCCCC [RCAI-137] | several tens times higher | 
